Assay results as given in PMC4546618, “Casitas B-Lineage Lymphoma RING Domain Inhibitors Protect Mice against High-Fat Diet-Induced Obesity and Insulin Resistance” (PLoS ONE, 2015).
Where two headings read alike, the source gives them in different places. Where a SMILES comes first, the peptide text is derived from it. [ ]: non-standard residue; d: D form. Pro(trans-4-F) = O=C(O)[C@@H]1C[C@@H](F)CN1; Phe(3-F) = N[C@@H](Cc1cccc(F)c1)C(=O)O; Phg = N[C@H](C(=O)O)c1ccccc1; Thz = O=C(O)[C@@H]1CSCN1

Columns and labels:
mice fed a high-fat diet [1] = experiment: Indirect energy expenditure and physical activity measurement; type: in vivo; conditions: after 12 weeks daily i.p. 5 mg/kg on high-fat diet; for Oxygen consumption VO2: vehicle 4.15 ± 0.55; for Ambulatory day activity / Ambulatory night activity: photobeam break counts; for Ambulatory day activity: vehicle 2,069 ± 705; for Ambulatory night activity: vehicle 6,289 ± 1,216
Procedure: (§1) All experiments were approved by the institutional Animal Care and Use Committee (Chengdu Medical College, China). All experiments were carried out in 10-week-old male mice maintained on the C57BL/6 background. All the animals were kept on a 12-h light/dark cycle with free access to food and water.
(§2) Animals (n = 90) were randomly assigned to one of the nine groups (Table 1). Animals were fed ad libitum with a high-fat diet (60% of caloric intake from fat (70% saturated fat), 20% from carbohydrates, and 20% from protein) before experiments and for another 12 weeks during the experiments. Food intake was measured manually on a daily basis. Eight groups of animals were treated with indicated peptides with a daily i.p. injection at 5 mg/kg and one group of animals were treated with vehicle.
After receiving 12 weeks of treatment as described above, rates of oxygen consumption (VO2) was measured using a four-chamber indirect calorimeter (Langguan, China, air flow of 0.5 l/min). A total of 2-hour measurement for each animal was conducted at 15-minuate intervals under room temperature (22°C). Ambulatory activity was estimated by counting the number of photobeam breaks in a three-sensor chamber instrument (Rui Pharm, China), and the cumulative ambulatory activity counts were recorded every hour. A total of 12 h-day time and 12 h-night activity were recorded for each animal.

mice = experiment: Acute toxicity in mice; type: in vivo; conditions: up to 15 mg/kg i.p.; for signs of acute toxicity: 72 hours; for death of animals: another 14 days following the initial examination; for H&E staining of livers, spleens and kidneys: end of experiment
Procedure: as §1
The control group (n = 10) received vehicle only. Eight groups (10 mice each) were treated with increasing doses of either peptide 1, 3, 10, 34, 2, 60, 49, and 51 up to 15 mg/kg by i.p. Number of death, sedation, spontaneous motor activity, alertness, ptosis, dyspnea, convulsion, diarrhea, urination, postural reflex, piloerection, nociception, grooming, vocalization, rearing, climbing and aggression were observed every 12 hours for 72 h. Animals were maintained for another 14 days after the initial examination. We planned to sacrifice the animals if they show severe signs of pain or distress, a body weight loss in excess of 15% of its body weight, or a deterioration of the body condition score to BC2(-) or below. However, none of the animals qualified for the mentioned the symptoms. No animals died during the whole study. At the end of the experiment, animals were euthanized by CO2 asphyxiation followed by cervical dislocation, the livers, spleens and kidneys were collected and formalin-fixed paraffin-embedded for H&E staining.

mice fed a high-fat diet [2] = experiment: High-fat diet-induced obesity: body weight, food intake, body composition, adipocyte volume; type: in vivo; conditions: daily i.p. 5 mg/kg; for percentage of perigonadal fat mass / adipocyte volume: 12 weeks; for percentage of perigonadal fat mass: NMR, vehicle 8 ± 0.8%; for adipocyte volume: adipocytes from epididymal fat pad, vehicle 510 ± 42 pL; for body weight gain vs vehicle, parental and negative control peptide groups: 12-week feeding period
Procedure: as §1, §2
Body composition was measured using nuclear magnetic resonance (NMR) technology at Chengdu College core facility. Epididymal fat pads were excised and adipocytes were isolated. Cells were then fixed using 2% OsO4 in PBS overnight at 37°C [2].

[3] = Pharmacokinetic studies, plasma concentration after i.p. injection; type: in vivo; conditions: mice, i.p. 4 mg/kg; for Cmax: male, C57BL/6, mouse, plasma, ip, read-out: maximum concentration in plasma; for plasma concentrations compared to the parental peptides 1 and 2: at each time point after 1 hour
Procedure: as §1
Peptides (1, 3, 10, 34, 2, 60, 49, and 51) were dissolved in sterile aqueous 5% dextrose and administered to mice by i.p. injection (4 mg/kg). Blood samples were collected from the tail tip at 0, 0.5, 1, 6, 12, 18, 24 and 48 hours. Plasma samples were harvested by centrifugation and stored at -80°C until assayed. Peptide concentrations in plasma were determined by Reversed-Phase High-Performance Liquid Chromatography (RP-HPLC) with electrospray ionization mass spectrometric ([…]) detection. Samples were assayed with a series of 8 calibration standards of peptide in plasma at concentrations ranging from 50 to 6000 μg/L. Peptide concentrations were determined by comparing to the standards.

Cbl (RING) protein = target: T1, Cbl (RING) protein (Homo sapiens, UniProt P22681); experiment: Fluorescence polarization (FP) assay, competition with FITC-βA-PFKPP-NH2 probe; type: binding; conditions: probe FITC-βA-PFKPP-NH2 100 nmol/L, Cbl (RING) protein 3 μmol/L, PBS pH 7.4
T1 construct: including the linker and RING domain (codon 358–457); GST (Glutathione S-Transferase); made in house
T1 sequence (P22681 358-457): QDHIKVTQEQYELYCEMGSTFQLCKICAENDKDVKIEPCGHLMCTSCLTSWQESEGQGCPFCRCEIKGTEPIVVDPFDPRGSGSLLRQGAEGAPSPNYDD
Procedure: Peptides and peptide mimetics were purchased from MitenChem (China) with a purity ≥ 98%. Concentrations values of reconstituted peptides were determined by amino acid analysis at the protein core facility (Chengdu Medical College). The recombinant Cbl protein was produced by the Chengdu Medical College Protein Core Facility and was described previously. The c-Cbl (RING) protein, including the linker and RING domain (codon 358–457), was tagged with Glutathione S-Transferase (GST) and purified with GSH-Sepharose (Shanghai Biopharma).
The FP assay was developed and validated previously. Briefly, fluorescein-labeled probe (FITC-βA-PFKPP-NH2, 100 nmol/L) and Cbl (RING) protein (3 μmol/L) were mixed and diluted to the final concentration using 0.01% Triton X-100 in PBS (pH = 7.4). Then, 19 μl of this master mix was loaded to each reaction well. The peptides or peptide mimetics were then loaded to the designated wells (1 μl, 10 μmol/L– 0.078 μmol/L, half-fold dilutions). The total fluorescence and polarization values were measured at an excitation wavelength of 485 nm and an emission wavelength of 538 nm using a ZS-2 plate reader. The data was fitted, and the ΔmP, Kd, and Ki values were estimated, using SigmaPlot 11.0.

mice fed a high-fat diet [4] = experiment: Glucose tolerance test after 12 weeks of treatment on high-fat diet; type: in vivo; conditions: overnight fasted mice, 2 g/kg glucose i.p., after 12 weeks daily i.p. 5 mg/kg on high-fat diet
Procedure: as §1, §2
After receiving 12 weeks of treatment as described above, glucose tolerance tests were performed in overnight fasted mice. Each mouse received a 2 g/kg glucose through i.p. Blood samples were obtained from the tail tip at 0, 30, 60, 90, and 120 min. Insulin concentrations were measured using mouse insulin Elisa kits (ChrystalChem) using mouse standards. Glucose levels were measured using a glucometer (Roche).

Row | Compound | Oxygen consumption VO2 (mice fed a high-fat diet [1]) [mL/g/h] | Ambulatory day activity (mice fed a high-fat diet [1]) | Ambulatory night activity (mice fed a high-fat diet [1]) | signs of acute toxicity (mice) | death of animals (mice) | H&E staining of livers, spleens and kidneys (mice) | percentage of perigonadal fat mass (mice fed a high-fat diet [2]) [%] | adipocyte volume (mice fed a high-fat diet [2]) [pL] | Cmax ([3]; observed in 30 min) [ng/mL] | Ki (Cbl (RING) protein) [µM] | glucose tolerance compared to the vehicle group (mice fed a high-fat diet [4]) | body weight gain vs vehicle, parental and negative control peptide groups (mice fed a high-fat diet [2]) | Cmax ([3]; observed in 60 min) [ng/mL] | plasma concentrations compared to the parental peptides 1 and 2 [3] | blood insulin levels compared to the vehicle group (mice fed a high-fat diet [4])
1 | Ac-KPATK-NH2 [Peptide 2, Ac-KPATK-NH2] | 4.22 ± 0.42 | 2,342 ±1,002 per 12 h | 6,721 ± 1,032 per 12 h | did not show vital signs of acute toxicity | None of the animals died | does not show any sign of injuries | 6.7 ± 0.5 | 440 ± 58 | 3370 | 4.7 ± 1.2 | – | – | – | – | –
2 | Ac-PFKPP-NH2 [Peptide 1, Ac-PFKPP-NH2] | 3.95 ± 0.22 | 2,152 ± 865 per 12 h | 5,941 ± 1,355 per 12 h | did not show vital signs of acute toxicity | None of the animals died | does not show any sign of injuries | 6.2 ± 0.7 | 430 ± 35 | 3080 | 7.2 ± 0.5 | not statistically significant | – | – | – | –
3 | CC(=O)N[C@@H](CCCCN)C(=O)N1C[C@H](F)C[C@H]1C(=O)N[C@@H](C)C(=O)N[C@H](C(=O)N[C@@H](CCCCN)C(N)=O)[C@@H](C)O [Peptide 51, Ac-K(t)ATK-NH2] (Ac-K[Pro(trans-4-F)]ATK-NH2) | 5.99 ± 0.95 | 4,953 ± 1,014 per 12 h | 19,251 ± 3,058 per 12 h | did not show vital signs of acute toxicity | None of the animals died | does not show any sign of injuries | 4.0 ± 0.8 | 250 ± 40 | – | 3.8 ± 1.1 | better glucose tolerance | significant differences in body weight gain | 4620 | greater plasma concentrations | significant reduction in blood insulin levels
4 | CC(=O)N1CCC[C@H]1C(=O)N[C@H](C(=O)N[C@@H](CCCCN)C(=O)N1CCC[C@H]1C(=O)N1CCC[C@H]1C(N)=O)c1ccccc1 [Peptide 3, Ac-P(a)KPP-NH2] (Ac-P[Phg]KPP-NH2) | 3.78 ± 0.29 | 2,158 ± 763 per 12 h | 6,058 ± 1,298 per 12 h | did not show vital signs of acute toxicity | None of the animals died | does not show any sign of injuries | 7.1 ± 0.4 | 505 ± 34 | – | > 500 | not statistically significant | – | 4020 | greater plasma concentrations | –
5 | CC(=O)N1CCC[C@H]1C(=O)N[C@@H](Cc1cccc(F)c1)C(=O)N[C@@H](CCCCN)C(=O)N1CCC[C@H]1C(=O)N1CCC[C@H]1C(N)=O [Peptide 10, Ac-P(h)KPP-NH2] (Ac-P[Phe(3-F)]KPP-NH2) | 5.92 ± 0.36 | 3,512 ± 923 per 12 h | 12,896 ± 2,469 per 12 h | did not show vital signs of acute toxicity | None of the animals died | does not show any sign of injuries | 3.5 ± 0.5 | 295 ± 31 | – | 1.8 ± 0.8 | better glucose tolerance | significant differences in body weight gain | 4520 | greater plasma concentrations | significant reduction in blood insulin levels
6 | CC(=O)N[C@@H](CCCCN)C(=O)N1C[C@H](F)C[C@H]1C(=O)N[C@@H](C)C(=O)N[C@@H](CC(C)C)C(=O)N[C@@H](CCCCN)C(N)=O [Peptide 60, Ac-K(t)ALK-NH2] (Ac-K[Pro(trans-4-F)]ALK-NH2) | 4.16 ± 0.29 | 2,025 ± 945 per 12 h | 5,993 ± 1,278 per 12 h | did not show vital signs of acute toxicity | None of the animals died | does not show any sign of injuries | 7.8 ± 0.7 | 520 ± 26 | – | 228 ± 20.2 | – | – | 4280 | greater plasma concentrations | –
7 | CC(=O)N1CSC[C@H]1C(=O)N[C@@H](Cc1cccc(F)c1)C(=O)N[C@@H](CCCCN)C(=O)N1CCC[C@H]1C(=O)N1CCC[C@H]1C(N)=O [Peptide 34, Ac-(r) (h)KPP-NH2] (Ac-[Thz][Phe(3-F)]KPP-NH2) | 5.88 ± 0.85 | 3,485 ± 864 per 12 h | – | did not show vital signs of acute toxicity | None of the animals died | does not show any sign of injuries | 3.0 ± 0.9 | 258 ± 29 | – | 1.5 ± 0.4 | better glucose tolerance | significant differences in body weight gain | 5020 | greater plasma concentrations | significant reduction in blood insulin levels
